Read-outs that look alike come from different tables or passages of the source.
What was measured:
GSK-3β (AA 1-420) = biological target: T1, GSK-3β (AA 1-420) (Homo sapiens, UniProt P49841); experiment: Ki determination for the inhibition of GSK-3 (coupled enzyme system); format: biochemical; settings: 20 μM ATP, 20 nM GSK-3β, 30° C.
T1 construct: GSK-3β (AA 1-420)
Outline: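 GSK-3β (AA 1-420, 20 nM) was run in a pyruvate kinase/LDH-coupled NADH assay in 100 mM HEPES pH 7.5, 10 mM MgCl2, 25 mM NaCl, 1 mM DTT, 1.5% DMSO, with 300 μM phosphopeptide substrate. Compound (0.002–30 μM) was preincubated 10 min at 30° C, then 20 μM ATP was added.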

Aurora-2 = biological target: T2, Aurora-2 (Homo sapiens, UniProt O14965); experiment: Ki determination for the inhibition of Aurora-2 (coupled enzyme assay); format: biochemical; settings: 70 nM Aurora-2, 30° C.
T2 sequence (O14965 1-403): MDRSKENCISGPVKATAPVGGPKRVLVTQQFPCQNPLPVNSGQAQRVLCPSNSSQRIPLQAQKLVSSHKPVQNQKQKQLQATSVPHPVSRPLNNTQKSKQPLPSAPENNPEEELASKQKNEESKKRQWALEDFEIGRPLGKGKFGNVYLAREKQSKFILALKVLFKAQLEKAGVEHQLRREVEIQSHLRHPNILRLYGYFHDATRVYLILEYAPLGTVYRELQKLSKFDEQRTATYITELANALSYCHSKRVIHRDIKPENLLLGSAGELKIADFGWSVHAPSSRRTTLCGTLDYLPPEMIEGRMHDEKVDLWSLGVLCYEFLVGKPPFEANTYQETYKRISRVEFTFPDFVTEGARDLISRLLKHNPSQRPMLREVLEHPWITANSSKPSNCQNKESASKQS
Outline: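 Ki came from reaction rates plotted against inhibitor concentration, with rates taken as A340 decrease over 5 min at 30° C. Enzyme (70 nM final) was added after 10 min compound preincubation; stock buffer held […], 800 μM LRRASLG, PK/LDH coupling, pH 7.5.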

human Src kinase = biological target: T3, human Src kinase (Homo sapiens, UniProt P12931); experiment: SRC inhibition assay (radioactivity-based or spectrophotometric assay); format: biochemical; settings: recombinant human Src kinase, assay A or B
T3 construct: full length recombinant human Src kinase (from Upstate Biotechnology, cat. no. 14-117); purchased Upstate Biotechnology 14-117; host or cells: baculo viral cells
Procedure: The compounds were evaluated as inhibitors of human Src kinase using either a radioactivity-based assay or spectrophotometric assay. The compounds were assayed as inhibitors of full length recombinant human Src kinase (from Upstate Biotechnology, cat. no. 14-117) expressed and purified from baculo viral cells. […] P-0275). […] In a typical assay, all the reaction components with the exception of ATP were pre-mixed and aliquoted into assay plate wells. […] The assay plate was incubated at 30° C. for 10 min before initiating the reaction with ^33P-ATP. After 20 min of reaction, the reactions were quenched with 150 μl of 10% trichloroacetic acid (TCA) containing 20 mM Na3PO4. The quenched samples were then transferred to a 96-well filter plate (Whatman, UNI-Filter GF/F Glass Fiber Filter, cat no. 7700-3310) installed on a filter plate vacuum manifold. Filter plates were washed four times with 10% TCA containing 20 mM Na3PO4 and then 4 times with methanol. 200 μl of scintillation fluid was then added to each well. The plates were sealed and the amount of radioactivity associated with the filters was quantified on a TopCount scintillation counter. The radioactivity incorporated was plotted as a function of the inhibitor concentration. The data was fitted to a competitive inhibition kinetics model to get the Ki for the compound. The ADP produced from ATP by the human recombinant Src kinase-catalyzed phosphorylation of poly Glu-Tyr substrate was quanitified using a coupled enzyme assay (Fox et al (1998) Protein Sci 7, 2249). In this assay one molecule of NADH is oxidised to NAD for every molecule of ADP produced in the kinase reaction. The disappearance of NADH can be conveniently followed at 340 nm. […] In a typical assay, all the reaction components with the exception of ATP were pre-mixed and aliquoted into assay plate wells. […] The absorbance change at 340 nm with time, the rate of the reaction, was monitored on a molecular devices plate reader. The data of rate as a function of the inhibitor concentration was fitted to competitive inhibition kinetics model to get the Ki for the compound.

T3 sequence (P12931 whole entry): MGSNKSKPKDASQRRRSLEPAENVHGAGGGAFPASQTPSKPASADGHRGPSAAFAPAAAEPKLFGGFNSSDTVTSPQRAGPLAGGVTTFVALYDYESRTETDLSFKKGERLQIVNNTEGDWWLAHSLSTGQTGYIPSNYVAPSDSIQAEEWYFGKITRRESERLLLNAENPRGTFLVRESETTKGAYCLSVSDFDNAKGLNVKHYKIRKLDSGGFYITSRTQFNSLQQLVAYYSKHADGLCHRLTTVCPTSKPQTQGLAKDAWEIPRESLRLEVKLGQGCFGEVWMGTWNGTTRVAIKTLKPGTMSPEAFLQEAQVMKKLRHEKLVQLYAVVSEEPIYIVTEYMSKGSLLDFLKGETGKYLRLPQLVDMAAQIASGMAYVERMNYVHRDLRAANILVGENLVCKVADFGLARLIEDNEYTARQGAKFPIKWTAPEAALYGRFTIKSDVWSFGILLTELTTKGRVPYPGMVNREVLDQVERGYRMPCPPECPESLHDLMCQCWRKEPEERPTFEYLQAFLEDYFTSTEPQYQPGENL
T1 sequence (P49841 whole entry, the tested form may be a part): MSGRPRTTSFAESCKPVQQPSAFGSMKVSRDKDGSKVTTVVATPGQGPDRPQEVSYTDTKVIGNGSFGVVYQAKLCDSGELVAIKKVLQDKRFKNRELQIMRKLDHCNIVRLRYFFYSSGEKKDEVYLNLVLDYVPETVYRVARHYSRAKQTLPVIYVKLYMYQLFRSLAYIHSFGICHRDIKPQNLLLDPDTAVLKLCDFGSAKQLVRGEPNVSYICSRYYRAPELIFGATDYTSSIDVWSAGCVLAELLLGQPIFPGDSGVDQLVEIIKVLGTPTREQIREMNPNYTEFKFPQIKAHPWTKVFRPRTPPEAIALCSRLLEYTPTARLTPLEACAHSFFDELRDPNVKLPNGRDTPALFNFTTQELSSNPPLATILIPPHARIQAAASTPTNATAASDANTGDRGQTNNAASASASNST

Row | SMILES | Ki (GSK-3β (AA 1-420)) [nM] | Ki (Aurora-2) [nM] | Ki (human Src kinase; read-out: Ki value on SRC) [nM] | melting point | Ki (human Src kinase; read-out: Ki value for SRC) [nM]
1 | c1ccc(Sc2nc(Nc3cc(C4CC4)[nH]n3)c3ccccc3n2)cc1 [IIa-21, (5-Cyclopropyl-2H-pyrazol-3-yl)-(2-phenylsulfanyl-quinazolin-4-yl)-amine] | < 100 | < 100 | < 100 | 233 to 236 °C | 
2 | Cc1cccc(Sc2nc(Nc3cc(C4CC4)[nH]n3)c3ccccc3n2)c1 [IIa-23, (5-Cyclopropyl-2H-pyrazol-3-yl)-[2-(3-methylphenylsulfanyl)-quinazolin-4-yl]-amine] | < 100 | < 100 | < 100 |  | 
3 | COc1cccc(Sc2nc(Nc3cc(C4CC4)[nH]n3)c3ccccc3n2)c1 [IIa-24, (5-Cyclopropyl-2H-pyrazol-3-yl)-[2-(3-methoxyphenylsulfanyl)-quinazolin-4-yl]-amine] | < 100 | < 100 | < 100 |  | 
4 | c1ccc2cc(Sc3nc(Nc4cc(C5CC5)[nH]n4)c4ccccc4n3)ccc2c1 [IIa-27, (5-Cyclopropyl-2H-pyrazol-3-yl)-[2-(naphtalen-2-ylsulfanyl)-quinazolin-4-yl]-amine] |  | < 100 | < 100 | 285 to 288 °C | 
5 | Fc1ccc(Sc2nc(Nc3cc(C4CC4)[nH]n3)c3ccccc3n2)c(F)c1 [IIa-28, (5-Cyclopropyl-2H-pyrazol-3-yl)-[2-(2,4-difluorophenylsulfanyl)-quinazolin-4-yl]-amine] | < 100 | < 100 | < 100 | 250 to 253 °C | 
6 | Clc1cccc(Sc2nc(Nc3cc(C4CC4)[nH]n3)c3ccccc3n2)c1Cl [IIa-30, (5-Cyclopropyl-2H-pyrazol-3-yl)-[2-(2,3-dichlorophenylsulfanyl)-quinazolin-4-yl]-amine] | < 100 | < 100 | < 100 | 250 to 252 °C | 
7 | Clc1cccc(Sc2nc(Nc3cc(C4CC4)[nH]n3)c3ccccc3n2)c1 [IIa-31, [2-(3-Chlorophenylsulfanyl)-quinazolin-4-yl]-(5-cyclopropyl-2H-pyrazol-3-yl)-amine] | < 100 | < 100 | < 100 | 235 to 238 °C | 
8 | Clc1ccccc1Sc1nc(Nc2cc(C3CC3)[nH]n2)c2ccccc2n1 [IIa-32, [2-(2-Chlorophenylsulfanyl)-quinazolin-4-yl]-(5-cyclopropyl-2H-pyrazol-3-yl)-amine] | < 100 | < 100 | < 100 | 255 to 257 °C | 
9 | Cc1ccc(Sc2nc(Nc3cc(C4CC4)[nH]n3)c3ccccc3n2)cc1C [IIa-33, (5-Cyclopropyl-2H-pyrazol-3-yl)-[2-(3,4-dimethylphenylsulfanyl)-quinazolin-4-yl]-amine] |  | < 100 | < 100 | 255 to 256 °C | 
10 | CCS(=O)(=O)Nc1ccc(Sc2nc(Nc3cc(C)[nH]n3)c3ccccc3n2)cc1 [IIa-55, [2-(4-Ethylsulfonylamino-phenylsulfanyl)-quinazolin-4-yl]-(5-methyl-2H-pyrazol-3-yl)-amine] | 100 to 1000 | < 100 |  | 279 to 280 °C | 1000 to 6000
11 | CNCC(=O)Nc1ccc(Sc2nc(Nc3cc(C)[nH]n3)c3ccccc3n2)cc1 [IIa-77, {2-[4-(2-Methylamino-acetylamino)-phenylsulfanyl]-quinazolin-4-yl}-(5-methyl-2H-pyrazol-3-yl)-amine] | 1000 to 7000 | < 100 |  | 242 to 244 °C | 1000 to 6000
12 | c1ccc2cc(Oc3nc(Nc4cc(C5CC5)[nH]n4)c4ccccc4n3)ccc2c1 [IIb-1, (5-Cyclopropyl-2H-pyrazol-3-yl)-[2-(naphthalen-2-yloxy)-quinazolin-4-yl]-amine] | < 100 | < 100 | < 100 | 327 to 328 °C | 

Next, values leading:

Row | Ki (GSK-3β (AA 1-420)) [nM] | Ki (Aurora-2) [nM] | Ki (human Src kinase; read-out: Ki value on SRC) [nM] | melting point | Ki (human Src kinase; read-out: Ki value for SRC) [nM] | SMILES
13 | 1000 to 7000 | < 100 |  | 153 °C (dec.) | 1000 to 6000 | CC(=O)Nc1ccc(Sc2nc(Nc3cc(C)n[nH]3)c3ccc(OCCCN4CCOCC4)cc3n2)cc1 [IIa-45, [2-(4-Acetamidophenylsulfanyl)-7-(3-morpholin-4-yl-propoxy)-quinazolin-4-yl]-(5-methyl-2H-pyrazol-3-yl)-amine]
14 | 100 to 1000 | < 100 |  | 294 to 297 °C | 1000 to 6000 | Cc1cc(Nc2nc(Sc3ccc(NS(=O)(=O)C(C)C)cc3)nc3ccccc23)n[nH]1 [IIa-48, [2-(4-Isopropanesulfonylamino-phenylsulfanyl)-quinazolin-4-yl]-(5-methyl-2H-pyrazol-3-yl)-amine]
15 | 1000 to 7000 | 100 to 1000 |  | 246 to 248 °C | 1000 to 6000 | Cc1cc(Nc2nc(Sc3ccc(C(=O)NCCN4CCOCC4)cc3)nc3ccccc23)n[nH]1 [IIa-65, (5-Methyl-2H-pyrazol-3-yl)-{2-[4-(2-morpholin-4-yl-ethylcarbamoyl)-phenylsulfanyl]-quinazolin-4-yl}-amine]
16 | 1000 to 7000 | < 100 |  | 241 to 243 °C | 1000 to 6000 | Cc1cc(Nc2nc(Sc3ccc(NC(=O)CN(C)C)cc3)nc3ccccc23)n[nH]1 [IIa-68, {2-[4-(2-Dimethylamino-acetylamino)-phenylsulfanyl]-quinazolin-4-yl}-(5-methyl-2H-pyrazol-3-yl)-amine]
17 |  | 100 to 1000 |  | 210 to 213 °C | 1000 to 6000 | Cc1cc(Nc2nc(Sc3ccc(C(=O)NCCCN(C)C)cc3)nc3ccccc23)n[nH]1 [IIa-70, {2-[4-(3-Dimethylamino-propylcarbamoyl)-phenylsulfanyl]-quinazolin-4-yl}-(5-methyl-2H-pyrazol-3-yl)-amine]
18 | 1000 to 7000 | < 100 |  | 280 °C (dec.) | 1000 to 6000 | Cc1cc(Nc2nc(Sc3ccc(NC(=O)CCN(C)C)cc3)nc3ccccc23)n[nH]1 [IIa-71, {2-[4-(3-Dimethylamino-propionylamino)-phenylsulfanyl]-quinazolin-4-yl}-(5-methyl-2H-pyrazol-3-yl)-amine]
19 | 1000 to 7000 | < 100 |  | 246 to 248 °C | 1000 to 6000 | CC(=O)Nc1ccc(Sc2nc(Nc3cc(C)[nH]n3)c3ccc(O)cc3n2)cc1 [IIa-74, [2-(4-Acetamidophenylsulfanyl)-7-hydroxy-quinazolin-4-yl]-(5-methyl-2H-pyrazol-3-yl)-amine]
20 |  | < 100 | < 100 | 277 to 279 °C |  | c1ccc2c(Nc3cc(C4CC4)[nH]n3)nc(Oc3ccc4c(c3)CCCC4)nc2c1 [IIb-4, (5-Cyclopropyl-2H-pyrazol-3-yl)-[2-(5,6,7,8-tetrahydronaphthalen-2-yloxy)-quinazolin-4-yl]-amine]
21 | 100 to 1000 | < 100 |  |  | 1000 to 6000 | COC(=O)c1cccc(Oc2nc(Nc3cc(C)[nH]n3)c3ccccc3n2)c1 [IIb-9, [2-(3-Methoxycarbonylphenoxy)-quinazolin-4-yl]-(5-methyl-2H-pyrazol-3-yl)-amine]
22 | 100 to 1000 | < 100 | < 100 |  |  | Cc1cc(Nc2nc(NCc3ccc(F)cc3)nc3ccccc23)n[nH]1 [IIc-13, [2-(4-Fluorobenzylamino)-quinazolin-4-yl]-(5-methyl-2H-pyrazol-3-yl)-amine]
